pIC50, pKi: −log10 of the molar value. Like-named read-outs stand apart in the source and are kept apart here.
Key:
[1] = target: T1, purified catalytic domain of recombinant human TACE (rhTACEc) (Homo sapiens, UniProt P78536, N452Q/S266A); test: TACE kinetic assay: cleavage of internally quenched peptide substrate TNF-FRET 2 (Ki); format: biochemical; conditions: TNF-FRET 2 substrate
T1 construct: 6xHis (C); made in house; host or cells: baculovirus/Hi5 insect cells

[2] = system: TNF-α production from human whole blood; test: Inhibition of TNF-α production from human whole blood (hWBA), LPS stimulated, ELISA; format: cell-based; conditions: Homo sapiens, TNF-α by ELISA, read-out: hWBA (IC50)
[3] = LPS-stimulated human whole blood
[4] = human whole blood diluted 1:1, LPS stimulated
[5] = 3.5 h, human whole blood diluted 1:1, LPS stimulated, 3.5 h

T1 sequence (P78536 215-477 S266A/N452Q): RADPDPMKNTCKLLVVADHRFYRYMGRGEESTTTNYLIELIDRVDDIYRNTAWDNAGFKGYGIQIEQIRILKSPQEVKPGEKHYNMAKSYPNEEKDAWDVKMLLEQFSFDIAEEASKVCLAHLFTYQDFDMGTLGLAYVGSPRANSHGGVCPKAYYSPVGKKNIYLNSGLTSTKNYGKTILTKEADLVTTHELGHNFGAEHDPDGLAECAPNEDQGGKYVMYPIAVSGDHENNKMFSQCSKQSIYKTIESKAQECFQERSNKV

Compound | pKi ([1]; read-out: Ki) | pIC50 [2, 3] | pIC50 [2, 4] | pIC50 [2, 5] | pKi ([1]; Ki)
COc1ccc2c(c1F)C(=O)N(C[C@@]1(c3cc4nc(-c5ccc(N(C)C)nc5)ccc4o3)NC(=O)NC1=O)C2 [Compound 1726] | 8.83 | < 5.00 | – | – | –
COc1ccc2c(c1)C(=O)N(C[C@@]1(c3cc4cc(C=O)ccc4o3)NC(=O)NC1=O)C2 [Compound 2451] | 9.39 | – | 6.01 | – | –
COc1ccc2c(c1)C(=O)N(C[C@@]1(c3cc4ncc(C(=O)NC5CC5)cc4o3)NC(=O)NC1=O)C2 [Compound 1931] | 9.25 | 6.49 | – | – | –
COc1ccc2c(c1)C(=O)N(C[C@@]1(c3cc4cc(S(=O)(=O)NCCN(C)C)ccc4o3)NC(=O)NC1=O)C2 [Compound 2482] | 9.17 | – | 6.52 | – | –
O=C1NC(=O)[C@](CN2Cc3ccc(O)cc3C2=O)(c2cc3cnccc3o2)N1 [Compound 2188] | 8.65 | – | – | 5.52 | –
COc1ccc2c(c1)C(=O)N(C[C@@]1(c3cc4nc(N(CCO)CCN(C)C)ccc4o3)NC(=O)NC1=O)C2 [Compound 1702] | 8.40 | 5.75 | – | – | –
COc1ccc2c(c1)C(=O)N(C[C@@]1(c3cc4ncc(C(N)=O)cc4o3)NC(=O)NC1=O)C2 [Compound 1929] | – | 6.76 | – | – | 9.43
COc1ccc2c(c1F)C(=O)N(C[C@@]1(c3cc4cncnc4o3)NC(=O)NC1=O)C2 [Compound 303] | 8.80 | 6.70 | – | – | –
COc1ccc2c(c1)C(=O)N(C[C@@]1(c3cc4cc(C(C)=O)cnc4o3)NC(=O)NC1=O)C2 [Compound 2433] | 9.14 | – | 6.15 | – | –
COc1ccc2c(c1)C(=O)N(C[C@@]1(c3cc4c(C(C)=O)nccc4o3)NC(=O)NC1=O)C2 [Compound 2448] | 9.10 | – | 6.08 | – | –
COc1ccc2c(c1)C(=O)N(C[C@@]1(c3cc4cc(CN(C)C)ccc4o3)NC(=O)NC1=O)C2 [Compound 2176] | 9.57 | – | – | 5.98 | –
COc1ccc2c(c1)C(=O)N(C[C@@]1(c3cc4cnc(-c5c(C)nn(C)c5C)cc4o3)NC(=O)NC1=O)C2 [Compound 2251] | 9.13 | – | – | 5.60 | –
COc1ccc2c(c1)C(=O)N(C[C@@]1(c3cc4nc(NC5CCNCC5)ccc4o3)NC(=O)NC1=O)C2 [Compound 1723] | 8.58 | 6.25 | – | – | –
COc1ccc2c(c1F)C(=O)N(C[C@@]1(c3cc4cnc(C)nc4o3)NC(=O)NC1=O)C2 [Compound 304] | 8.91 | 6.52 | – | – | –
COc1ccc2c(c1)C(=O)N(C[C@@]1(c3cc4c(C)nc(N)nc4o3)NC(=O)NC1=O)C2 [Compound 2299] | – | – | 6.55 | – | 9.12
CCN1CC=C(c2nc3cc([C@]4(CN5Cc6ccc(OC)c(F)c6C5=O)NC(=O)NC4=O)oc3cc2F)CC1 [Compound 1321] | 9.19 | 6.74 | – | – | –
COc1ccc2c(c1)C(=O)N(C[C@@]1(c3cc4nc(Nc5nccs5)ccc4o3)NC(=O)NC1=O)C2 [Compound 2113] | 9.21 | – | – | 5.85 | –
COc1ccc2c(c1F)C(=O)N(C[C@@]1(c3cc4ccc(NC(C)=O)nc4o3)NC(=O)NC1=O)C2 [Compound 505] | 9.25 | 6.60 | – | – | –
O=C1NC(=O)[C@](CN2Cc3ccc(OCC4CC4)c(F)c3C2=O)(c2cc3cc4c(c(F)c3o2)C(=O)NC4)N1 [Compound 2493] | 9.31 | – | 6.46 | – | –

Compound | pKi ([1]; read-out: Ki) | pIC50 [2, 3] | pIC50 [2, 4] | pIC50 [2, 5] | pKi ([1]; Ki)
COc1ccc2c(c1)C(=O)N(C[C@@]1(c3cc4cc(-c5cnn(C)c5)ncc4o3)NC(=O)NC1=O)C2 [Compound 306] | 9.18 | 6.18 | – | – | –
COc1ccc2c(c1)C(=O)N(C[C@@]1(c3cc4c(s3)CCN(C)C4)NC(=O)NC1=O)C2 [Compound 2265] | 8.06 | – | – | 5.84 | –
COCCN1CCN(c2ccc3oc([C@]4(CN5Cc6ccc(OC)cc6C5=O)NC(=O)NC4=O)cc3n2)CC1 [Compound 1500] | 8.96 | 6.48 | – | – | –
COc1ccc2c(c1)C(=O)N(C[C@@]1(c3cc4cc(C(=O)NCCN(C)CCNC(=O)OC(C)(C)C)c(F)cc4o3)NC(=O)NC1=O)C2 [Compound 1278] | 8.74 | – | – | 5.49 | –
COc1ccc2c(c1)C(=O)N(C[C@@]1(c3cc4cc(C5CCNCC5)ncc4o3)NC(=O)NC1=O)C2 [Compound 301] | 8.98 | 6.79 | – | – | –
COc1ccc2c(c1)C(=O)N(C[C@@]1(c3cc4cc5c(cc4o3)[C@@H](N)CC5)NC(=O)NC1=O)C2 [Compound 2508] | 9.28 | – | 5.99 | – | –
COc1ccc2c(c1)C(=O)N(C[C@@]1(c3cc4ncc(-c5ncc[nH]5)cc4o3)NC(=O)NC1=O)C2 [Compound 1943] | 9.27 | 6.13 | – | – | –
COc1ccc2c(c1)C(=O)N(C[C@@]1(c3cc4c(o3)CCN(S(C)(=O)=O)C4)NC(=O)NC1=O)C2 [Compound 316] | 9.09 | 6.30 | – | – | –
COc1ccc2c(c1)C(=O)N(C[C@@]1(c3cc4c(-c5ccccc5F)nccc4o3)NC(=O)NC1=O)C2 [Compound 2237] | 9.45 | – | – | 5.94 | –
COc1ccc2c(c1)C(=O)N(C[C@@]1(c3cc4cc(C(=O)NCCN)c(F)cc4o3)NC(=O)NC1=O)C2 [Compound 1274] | 9.30 | – | – | 6.85 | –
CCOC(=O)c1c(O)nc(C)c2cc([C@]3(CN4Cc5ccc(OC)cc5C4=O)NC(=O)NC3=O)oc12 [Compound 2434] | 8.88 | – | 6.76 | – | –
COc1ccc2c(c1F)C(=O)N(C[C@@]1(c3cc4cc5sc(N)nc5cc4o3)NC(=O)NC1=O)C2 [Compound 1743] | – | 6.63 | – | – | 9.85
COc1ccc2c(c1)C(=O)N(C[C@@]1(c3cc4cc(-c5cc(N)n[nH]5)ccc4o3)NC(=O)NC1=O)C2 [Compound 2246] | 9.28 | – | – | 6.96 | –
COc1ccc2c(c1)C(=O)N(C[C@@]1(c3cc4cc(CO)ccc4o3)NC(=O)NC1=O)C2 [Compound 2178] | 9.26 | – | – | 6.29 | –
COc1ccc2c(c1)C(=O)N(C[C@@]1(c3cc4cc(C(=O)N(C)CCN(C)C)c(F)cc4o3)NC(=O)NC1=O)C2 [Compound 1275] | 9.06 | – | – | 6.36 | –
COc1ccc2c(c1)C(=O)N(C[C@@]1(c3cc4ccc(C(=O)N[C@@H](C)CO)cc4o3)NC(=O)NC1=O)C2 [Compound 2417] | 9.19 | – | 6.29 | – | –
COc1ccc2c(c1)C(=O)N(C[C@@]1(c3cc4cc(C(=O)O)c(F)cc4o3)NC(=O)NC1=O)C2 [Compound 1272] | 9.29 | – | – | 6.18 | –
COc1ccc2c(c1)C(=O)N(C[C@@]1(c3cc4cc(-c5cccc(C#N)c5)ncc4o3)NC(=O)NC1=O)C2 [Compound 2432] | 9.04 | – | 5.76 | – | –
COc1ccc2c(c1F)C(=O)N(C[C@@]1(c3cc4cnc(Cl)cc4o3)NC(=O)NC1=O)C2 [Compound 2217] | 9.22 | – | – | 6.07 | –

Compound | pKi ([1]; read-out: Ki) | pIC50 [2, 3] | pIC50 [2, 4] | pIC50 [2, 5] | pKi ([1]; Ki)
COc1ccc2c(c1)C(=O)N(C[C@@]1(c3cc4cc(CN5CCNCC5)ccc4o3)NC(=O)NC1=O)C2 [Compound 2186] | 9.27 | – | – | 6.46 | –
COc1ccc2c(c1)C(=O)N(C[C@@]1(c3cc4c(NCc5ccccc5)ccnc4o3)NC(=O)NC1=O)C2 [Compound 2248] | – | – | – | 6.63 | 8.79
COc1ccc2c(c1)C(=O)N(C[C@@]1(c3cc4nc(-c5cc6ccccc6[nH]5)ccc4o3)NC(=O)NC1=O)C2 [Compound 2149] | 9.54 | – | – | 6.27 | –
COc1ccc2c(c1)C(=O)N(C[C@@]1(c3ccc(C(=O)O)cc3)NC(=O)NC1=O)C2 [Compound 2404] | 8.50 | – | 5.77 | – | –
COc1ccc2c(c1F)C(=O)N(C[C@@]1(c3cc4nc(C)c(Br)cc4o3)NC(=O)NC1=O)C2 [Compound 1917] | 9.30 | 5.87 | – | – | –
COc1ccc2c(c1)C(=O)N(C[C@@]1(c3cc4cc(Br)ccc4o3)NC(=O)NC1=O)C2 [Compound 2192] | 9.31 | – | – | 5.48 | –
COc1ccc2c(c1)C(=O)N(C[C@@]1(c3cc4c(o3)CCN(C(=O)Nc3cccnc3)C4)NC(=O)NC1=O)C2 [Compound 321] | 6.15 | ≤ 3.00 | – | – | –
COc1ccc2c(c1)C(=O)N(C[C@@]1(c3cc4cc(-c5cc(O)nc(N)n5)cnc4o3)NC(=O)NC1=O)C2 [Compound 302] | 9.28 | 6.82 | – | – | –
COc1ccc2c(c1F)C(=O)N(C[C@@]1(c3cc4nc(C(N)=O)ccc4o3)NC(=O)NC1=O)C2 [Compound 1904] | 9.21 | 6.88 | – | – | –
COc1ccc2c(c1)C(=O)N(C[C@@]1(c3cc4cc(-c5c(C)nn(C)c5C)ccc4o3)NC(=O)NC1=O)C2 [Compound 2213] | 9.39 | – | – | 5.82 | –
COc1ccc2c(c1)C(=O)N(C[C@@]1(c3cc4cnc(N)cc4o3)NC(=O)NC1=O)C2 [Compound 2282] | 9.37 | – | 6.57 | – | –
COc1ccc2c(c1)C(=O)N(C[C@@]1(c3ccc(C(=O)N4CCOCC4)cc3)NC(=O)NC1=O)C2 [Compound 2405] | 8.54 | – | 5.57 | – | –
COc1ccc2c(c1)C(=O)N(C[C@@]1(c3ccc(-c4ccc(C(=NO)N5CCN(C)CC5)cc4)cc3)NC(=O)NC1=O)C2 [Compound 2456] | 9.12 | – | 5.99 | – | –
COc1ccc2c(c1)C(=O)N(C[C@@]1(c3cc4nc(N(CCO)Cc5ccccn5)ccc4o3)NC(=O)NC1=O)C2 [Compound 1701] | 8.60 | 5.65 | – | – | –
COc1ccc2c(c1)C(=O)N(C[C@@]1(c3cc4c(o3)CCNC4)NC(=O)NC1=O)C2 [Compound 2262] | 8.18 | – | – | ≤ 6.00 | –
COC(=O)c1ccc2oc([C@]3(CN4Cc5ccc(OC)cc5C4=O)NC(=O)NC3=O)cc2n1 [Compound 2463] | 9.89 | – | 6.47 | – | –
COc1ccc2c(c1)C(=O)N(C[C@@]1(c3cc4cnc(N5CCCC5=O)cc4o3)NC(=O)NC1=O)C2 [Compound 2253] | 9.01 | – | – | 5.57 | –
COc1ccc2c(c1)C(=O)N(C[C@@]1(c3cc4nc(-c5cncc(C#N)c5)ccc4o3)NC(=O)NC1=O)C2 [Compound 1529] | 9.10 | 5.44 | – | – | –

From patent US8569336B2, “Compounds for the treatment of inflammatory disorders” (priority 2008, dated 2013)
